Assays:
Type in all cases: in vivo
Settings in all cases: 34 hours post spray
Fuji apples = assay: Apple coloration in Fuji variety (Example 6)
Description: (§1) To determine if the mixture provided unexpected results, the observed combined efficacy (“OCE”) was divided by the expected combined efficacy (“ECE”) wherein the ECE is calculated by the Abbott method: […]
(§2) wherein ECE is the expected combined efficacy and in which A and B are the fold change from control given by the single active ingredients. If the ratio between the OCE of the mixture and the ECE of the mixture is greater than 1, then greater than expected interactions are present in the mixture. (Gisi, Synergistic Interaction of Fungicides in Mixtures, The American Phytopathological Society, 86:11, 1273-1279, 1996).
(§3) 10 sets of unripened apples, Fuji variety, harvested three weeks before the normal harvest date, were each foliar sprayed with either 1) 0.05% Regulaid® as a control, 2) 50 ppm jasmonic acid, 3) 300 ppm jasmonic acid, 4) 50 ppm ACC, 5) 300 ppm ACC, 6) a mixture of 50 ppm jasmonic acid and 50 ppm ACC, 7) a mixture of 50 ppm jasmonic acid and 300 ppm ACC, 8) a mixture of 300 ppm jasmonic acid and 50 ppm ACC or 9) a mixture of 300 ppm jasmonic acid and 300 ppm ACC. 34 hours post spray application percent red pixel area (shaded) was measured.

Red Aztec Fuji apples = assay: Apple coloration in Red Aztec Fuji variety (Example 7)
Description: as §1, §2
10 sets of unripened apples, Red Aztec Fuji variety, harvested three weeks before the normal harvest date, were each foliar sprayed with either 1) 0.05% Regulaid® as a control, 2) 50 ppm jasmonic acid, 3) 300 ppm jasmonic acid, 4) 50 ppm ACC, 5) 300 ppm ACC, 6) a mixture of 50 ppm jasmonic acid and 50 ppm ACC, 7) a mixture of 50 ppm jasmonic acid and 300 ppm ACC, 8) a mixture of 300 ppm jasmonic acid and 50 ppm ACC or 9) a mixture of 300 ppm jasmonic acid and 300 ppm ACC. 34 hours post spray application percent red pixel area (shaded) was measured.

Pink Lady apples [1] = assay: Apple coloration in Pink Lady variety (Example 12)
Description: as §1, §2
as §3, with “Pink Lady” for “Fuji”, “measured. The OCE/ECE ratio formula was modified to ECE=A+B−(A*B) to account for reduced average % red pixel area over control for each of the ACC applications.” for “measured.”

Pink Lady apples [2] = assay: Apple coloration in Pink Lady variety, 100 ppm (Example 13)
Description: as §1, §2
10 sets of unripened apples, Pink Lady variety, harvested three weeks before the normal harvest date, were each foliar sprayed with either 1) 0.05% Regulaid® as a control, 2) 100 ppm jasmonic acid, 3) 100 ppm ACC and 4) a mixture of 100 ppm jasmonic acid and 100 ppm ACC. 34 hours post spray application percent red pixel area (shaded) was measured. The OCE/ECE ratio formula was modified to ECE=A+B−(A*B) to account for reduced average % red pixel area over control for each of the ACC applications.

Evercrisp apples = assay: Apple coloration in Evercrisp variety (Example 9)

With `NC1(C(=O)O)CC1` [ACC, 1-amino-1-cyclopropanecarboxylic acid] the “Average % Red Pixel Area” value (Fuji apples; 50 ppm) was 20.61%, the “Fold Change From control” value (Fuji apples; 50 ppm) was 0.02 and the “Average % Red Pixel Area” value (Fuji apples; 300 ppm) was 25.47%. The “Fold Change From control” value (Fuji apples; 300 ppm) was 0.26, the “Average % Red Pixel Area” value (Red Aztec Fuji apples; 50 ppm) was 17.08% and the “Fold Change From control” value (Red Aztec Fuji apples; 50 ppm) was −0.04. The “Average % Red Pixel Area” value (Red Aztec Fuji apples; 300 ppm) was 15.84%, the “Fold Change From control” value (Red Aztec Fuji apples; 300 ppm) was −0.11 and the “Average % Red Pixel Area” value (Pink Lady apples [1]; 50 ppm) was 24.63%. The “Fold Change From control” value (Pink Lady apples [1]; 50 ppm) was 0.68, the “Average % Red Pixel Area” value (Pink Lady apples [1]; 300 ppm) was 28.83% and the “Fold Change From control” value (Pink Lady apples [1]; 300 ppm) was 0.80. For the same compound, the “Average % Red Pixel Area” value (Pink Lady apples [2]) was 19.32%, the “Fold Change From control” value (Pink Lady apples [2]) was 0.80 and the “Average % Red Pixel Area” value (Evercrisp apples; 50 ppm) was 46.78%. For the same compound, the “Fold Change From control” value (Evercrisp apples; 50 ppm) was 1.48, the “Average % Red Pixel Area” value (Evercrisp apples; 300 ppm) was 72.16% and the “Fold Change From control” value (Evercrisp apples; 300 ppm) was 2.82.
`CC/C=C\C[C@H]1C(=O)CC[C@@H]1CC(=O)O` [jasmonic acid] was tested, and the “Average % Red Pixel Area” value (Fuji apples; 50 ppm) was 24.55%, the “Fold Change From control” value (Fuji apples; 50 ppm) was 0.21 and the “Average % Red Pixel Area” value (Fuji apples; 300 ppm) was 60.29%. For the same compound, the “Fold Change From control” value (Fuji apples; 300 ppm) was 1.98, the “Average % Red Pixel Area” value (Red Aztec Fuji apples; 50 ppm) was 22.53% and the “Fold Change From control” value (Red Aztec Fuji apples; 50 ppm) was 0.26. For the same compound, the “Average % Red Pixel Area” value (Red Aztec Fuji apples; 300 ppm) was 75.2%, the “Fold Change From control” value (Red Aztec Fuji apples; 300 ppm) was 3.21 and the “Average % Red Pixel Area” value (Pink Lady apples [1]; 50 ppm) was 68.55%. For the same compound, the “Fold Change From control” value (Pink Lady apples [1]; 50 ppm) was 1.91, the “Average % Red Pixel Area” value (Pink Lady apples [1]; 300 ppm) was 76.7% and the “Fold Change From control” value (Pink Lady apples [1]; 300 ppm) was 2.13. For the same compound, the “Average % Red Pixel Area” value (Pink Lady apples [2]) was 49.9%, the “Fold Change From control” value (Pink Lady apples [2]) was 2.06 and the “Average % Red Pixel Area” value (Evercrisp apples; 50 ppm) was 40.67%. The “Fold Change From control” value (Evercrisp apples; 50 ppm) was 1.15, the “Average % Red Pixel Area” value (Evercrisp apples; 300 ppm) was 70.81% and the “Fold Change From control” value (Evercrisp apples; 300 ppm) was 2.75.
